Molecules are shown by their SMILES.

In one experiment the target is T1, Peroxisome proliferator-activated receptor alpha (Mus musculus, UniProt P23204).
T1 sequence (P23204 whole entry): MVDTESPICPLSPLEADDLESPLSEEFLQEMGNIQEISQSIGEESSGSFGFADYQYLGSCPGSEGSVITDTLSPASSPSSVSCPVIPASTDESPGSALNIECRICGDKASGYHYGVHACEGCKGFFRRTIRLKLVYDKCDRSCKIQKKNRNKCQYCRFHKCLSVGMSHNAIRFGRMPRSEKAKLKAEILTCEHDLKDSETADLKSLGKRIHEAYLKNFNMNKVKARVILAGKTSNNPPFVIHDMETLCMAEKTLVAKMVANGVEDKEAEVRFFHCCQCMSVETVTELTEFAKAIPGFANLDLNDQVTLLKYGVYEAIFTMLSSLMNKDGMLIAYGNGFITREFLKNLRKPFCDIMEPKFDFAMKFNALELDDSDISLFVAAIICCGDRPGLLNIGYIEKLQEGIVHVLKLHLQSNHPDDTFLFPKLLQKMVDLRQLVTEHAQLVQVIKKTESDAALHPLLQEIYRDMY
Kind of experiment: In vitro transcriptional activation of peroxisome proliferator activated alpha-receptor (PPAR) expressed in CV-1 cells; Inactive. It counts as functional, cell-based.
Settings: not given; call rule not given here
In the case of `CN(CCOc1ccc(/C=C2\SC(=O)NC2=O)cc1)c1nc2ccccc2o1`, the half-maximal effective concentration (EC50) entry is “Not Active”.
On the same count and under the same terms, then `CN(CCOc1ccc(C2SC(=O)NC2=O)cc1)c1nc2ccccc2o1` (configuration not stated), with “Not Active”; and `CN(CCOc1ccc(/C=C2\SC(=O)NC2=O)cc1)c1ccccn1`, with “Not Active”; and `CN(CCCOc1ccc(CC2SC(=O)NC2=O)cc1)c1nc2ccccc2o1` (configuration not stated), with “Not Active”.
Same read-out and setting: the result for `CN(CCOc1ccc(CC2SC(=O)NC2=O)cc1)c1nc2ccccc2o1` (configuration not stated) [BRL-48482] reads “Not Active”; that for `CC1(COc2ccc(CC3SC(=O)NC3=O)cc2)CCCCC1` (configuration not stated) [CIGLITAZONE], “Not Active”.
On the same count and under the same terms, then `O=C1NC(=O)C(Cc2ccc3c(c2)CC[C@H](Cc2ccccc2)O3)S1` (some centres not stated) [ENGLITAZONE], with “Not Active”.
With `CCc1ccc(CCOc2ccc(CC3SC(=O)NC3=O)cc2)nc1` (configuration not stated) [PIOGLITAZONE], the EC50 result was “Not Active”.
Same read-out and setting: then `CN(CCOc1ccc(CC2SC(=O)NC2=O)cc1)c1ccccn1` (configuration not stated) [ROSIGLITAZONE], with “Not Active”.

For another experiment, the target named is T1, Peroxisome proliferator-activated receptor alpha. Kind of experiment: In vitro transcriptional activation of peroxisome proliferator activated alpha-receptor (PPAR) expressed in CV-1 cells. It counts as functional, cell-based.
Settings: not given
`O=C(O)CCC(=O)c1ccc(Oc2ccc(Cl)cc2)cc1`: it took 80 µM to reach a half-maximal effect (EC50).
On the same count and under the same terms, the result for `CC(C)(Oc1ccc(Cl)cc1)C(=O)O` [CLOFIBRIC ACID] reads 51 µM.

A further experiment has as its target T2, Peroxisome proliferator-activated receptor delta (Mus musculus, UniProt P35396).
T2 sequence (P35396 whole entry): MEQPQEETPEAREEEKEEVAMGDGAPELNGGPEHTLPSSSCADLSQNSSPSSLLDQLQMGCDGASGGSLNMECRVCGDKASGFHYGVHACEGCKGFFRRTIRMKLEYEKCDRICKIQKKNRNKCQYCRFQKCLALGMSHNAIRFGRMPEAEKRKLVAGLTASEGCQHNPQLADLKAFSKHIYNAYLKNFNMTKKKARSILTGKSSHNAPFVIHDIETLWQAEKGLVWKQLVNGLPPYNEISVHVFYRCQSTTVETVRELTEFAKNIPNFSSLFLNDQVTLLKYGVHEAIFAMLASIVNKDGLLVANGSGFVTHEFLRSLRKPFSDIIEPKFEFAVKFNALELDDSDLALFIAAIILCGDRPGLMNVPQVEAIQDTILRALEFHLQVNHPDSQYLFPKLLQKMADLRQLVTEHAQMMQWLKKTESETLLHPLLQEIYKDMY
Particulars: cv-1.
As to `CN(CCOc1ccc(/C=C2\SC(=O)NC2=O)cc1)c1nc2ccccc2o1`, the concentration for a half-maximal effect (EC50) result is given as “Not Active”.
In the case of `CN(CCOc1ccc(C2SC(=O)NC2=O)cc1)c1nc2ccccc2o1` (configuration not stated), the EC50 entry is on record as “Not Active”.
As for `CN(CCOc1ccc(/C=C2\SC(=O)NC2=O)cc1)c1ccccn1`, the 50% effective concentration (EC50) entry was “Not Active”.
With `CN(CCCOc1ccc(CC2SC(=O)NC2=O)cc1)c1nc2ccccc2o1` (configuration not stated), the half-maximal effective concentration (EC50) entry is “Not Active”.
On the same count and under the same terms, the result for `O=C(O)CCC(=O)c1ccc(Oc2ccc(Cl)cc2)cc1` reads “Not Active”; that for `CN(CCOc1ccc(CC2SC(=O)NC2=O)cc1)c1nc2ccccc2o1` (configuration not stated) [BRL-48482], “Not Active”; that for `CC1(COc2ccc(CC3SC(=O)NC3=O)cc2)CCCCC1` (configuration not stated) [CIGLITAZONE], “Not Active”.
On the same count and under the same terms, then `CC(C)(Oc1ccc(Cl)cc1)C(=O)O` [CLOFIBRIC ACID], with “Not Active”; and `O=C1NC(=O)C(Cc2ccc3c(c2)CC[C@H](Cc2ccccc2)O3)S1` (some centres not stated) [ENGLITAZONE], with “Not Active”.
The same measure, in the same setting: then `CCc1ccc(CCOc2ccc(CC3SC(=O)NC3=O)cc2)nc1` (configuration not stated) [PIOGLITAZONE], with “Not Active”.

The species named for another experiment is Mus musculus. In words: Minimum effective dose required for significant reduction in blood glucose in ob/ob mice. The class given is functional.
Settings: not given
`CN(CCOc1ccc(/C=C2\SC(=O)NC2=O)cc1)c1nc2ccccc2o1` gave an MED of 300 µM/kg.
Still for that read-out and setting: then `CN(CCOc1ccc(C2SC(=O)NC2=O)cc1)c1nc2ccccc2o1` (configuration not stated), with more than 1000 µM/kg; and `CN(CCOc1ccc(/C=C2\SC(=O)NC2=O)cc1)c1ccccn1`, with 300 µM/kg; and `CN(CCCOc1ccc(CC2SC(=O)NC2=O)cc1)c1nc2ccccc2o1` (configuration not stated), with 300 µM/kg.
The molecule `CN(CCOc1ccc(CC2SC(=O)NC2=O)cc1)c1nc2ccccc2o1` (configuration not stated) [BRL-48482] registered an MED of 3 µM/kg.
With `CC1(COc2ccc(CC3SC(=O)NC3=O)cc2)CCCCC1` (configuration not stated) [CIGLITAZONE], the MED was 3000 µM/kg.
With `CCc1ccc(CCOc2ccc(CC3SC(=O)NC3=O)cc2)nc1` (configuration not stated) [PIOGLITAZONE], the MED was found to be 300 µM/kg.
On the same count and under the same terms, then `CN(CCOc1ccc(CC2SC(=O)NC2=O)cc1)c1ccccn1` (configuration not stated) [ROSIGLITAZONE], with 3 µM/kg.

The target in a further experiment is T3, Peroxisome proliferator-activated receptor gamma (Mus musculus, UniProt P37238).
T3 sequence (P37238 whole entry): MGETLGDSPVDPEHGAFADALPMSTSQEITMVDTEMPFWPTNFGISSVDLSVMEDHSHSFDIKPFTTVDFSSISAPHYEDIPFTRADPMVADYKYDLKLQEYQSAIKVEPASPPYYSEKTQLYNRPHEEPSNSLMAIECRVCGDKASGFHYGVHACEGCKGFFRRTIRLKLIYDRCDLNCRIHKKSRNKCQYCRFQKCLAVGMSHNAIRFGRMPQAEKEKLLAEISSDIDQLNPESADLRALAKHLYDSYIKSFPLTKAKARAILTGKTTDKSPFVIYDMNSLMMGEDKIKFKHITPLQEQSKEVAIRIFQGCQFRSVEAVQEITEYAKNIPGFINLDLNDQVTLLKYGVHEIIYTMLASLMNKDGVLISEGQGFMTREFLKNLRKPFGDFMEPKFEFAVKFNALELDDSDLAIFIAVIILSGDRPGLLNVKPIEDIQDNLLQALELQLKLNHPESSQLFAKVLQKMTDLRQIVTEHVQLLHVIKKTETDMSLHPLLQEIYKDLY
Settings: not given
As for `CN(CCOc1ccc(/C=C2\SC(=O)NC2=O)cc1)c1nc2ccccc2o1`, the EC50 came to 0.14 µM.
The same measure, in the same setting: then `CN(CCOc1ccc(C2SC(=O)NC2=O)cc1)c1nc2ccccc2o1` (configuration not stated), with 10 µM.
On the same count and under the same terms, then `CN(CCOc1ccc(/C=C2\SC(=O)NC2=O)cc1)c1ccccn1`, with 0.19 µM.
With `CN(CCCOc1ccc(CC2SC(=O)NC2=O)cc1)c1nc2ccccc2o1` (configuration not stated), the midpoint of the response, the EC50, lay at 1 µM. This EC50 lies about 5.3-fold higher than the previous one.
`O=C(O)CCC(=O)c1ccc(Oc2ccc(Cl)cc2)cc1` displayed a 50% effective concentration (EC50) of 110 µM.
Same read-out and setting: the result for `CC1(COc2ccc(CC3SC(=O)NC3=O)cc2)CCCCC1` (configuration not stated) [CIGLITAZONE] reads 3 µM; that for `CC(C)(Oc1ccc(Cl)cc1)C(=O)O` [CLOFIBRIC ACID], 600 µM; that for `O=C1NC(=O)C(Cc2ccc3c(c2)CC[C@H](Cc2ccccc2)O3)S1` (some centres not stated) [ENGLITAZONE], 13 µM.

The EC50 is the concentration that produces a half-maximal response. A low value points to higher potency in that assay.

(Values after ChEMBL document CHEMBL1129472, “The structure-activity relationship between peroxisome proliferator-activated receptor gamma agonism and the antihyperglycemic activity of thiazolidinediones” (J Med Chem, 1996).)
